Entries after “also recorded” stand apart in the source; their conditions may differ.
Experiments:
Type in all cases: cell-based
[1] = test system: human alveolar adenocarcinoma cell line (H358)
Text: Pub. […] Cells were pipetted into the mold and allowed 3-5 days to form 3-D clusters, mimicking miniature tumors. The cell clusters were removed from the mold by washing and gentle pipetting. The cell clusters were placed in media containing 0.5% FBS. The clusters were dispensed into 96-well plates at a density of approximately 12-15 clusters per well for testing with the therapeutic composition designated herein as “GZ17” and a known chemotherapeutic agent (doxorubicin, aka adriamycin).
The cell clusters were tested against GZ17 and doxorubicin individually at various dosages, and then against the combination therapeutic containing both agents.
(§1) 96-well cell culture plates were loaded with increasing doses of GZ17 (graph on left) within a row. The doses were each added to 8 rows of each plate for 8 replicates at each dose. Cell clusters were pipetted into each well, and exposed for 24 hours to GZ17. At the completion of 24 hours, the wells were treated with 20 microliters of Prestoblue and allowed to incubate for up to 4 hours. The plates were read at 2-4 different time points after exposure to Prestoblue ranging from 30 minutes to 4 hours. The one-hour time point was the most often used and reported. The plates were loaded into a Perkin Elmer Enspire plate reader and each well was excited at 490 nm and read at 560 nm wavelengths. Relative fluorescence for each well was read.
The chemotherapy classification of paclitaxel (also known as taxol) is a mitotic inhibitor. It works by stabilizing the microtubules. The microtubules are part of the cytoskeleton of the cell. When the cells go into cell division, the microtubules must disassemble so that the cell can divide. However, with paclitaxel, the microtubule polymer can't disassemble, and thus the cells can't divide which triggers apoptosis, or programmed cell death. There are subcategories of drugs in the mitotic inhibitor class including the vinca alkaloids (vincristine and vinblastine) and the colchicines class, podophyllotoxin and griseofulvin. Other drugs that work like paclitaxel are the taxanes and docotaxel.
The study was again repeating using fluorouracil. Fluorouracil is an anti-metabolite chemotherapy. It mimics pyrimidine and incorporates into the DNA and RNA blocking the ability of the cell to divide, and eventually ending in death of the cancer cells. Other drugs in this category include cytarabine and 6-azauracil.
(§2) The powder was reconstituted in deionized water and agitated to ensure substantial homogeneity.

[2] = test system: human ovarian cancer cell line (A1847); assay: 3-D ovarian cancer cell cluster viability (Prestoblue fluorescence); conditions: for doses giving a statistically significant decrease in live cells: agent alone; for dose that had to be reached before the agent alone had an effect: ovarian cancer spheroids
Protocol: as §1
The human ovarian cancer cell line (A1847) was used to create miniature tumors by loading the individual cells in a micromold according to U.S. Pat. App. Pub. […] Cells were pipetted into the mold and allowed 2-3 days to form 3-D clusters, mimicking miniature tumors. Cell clusters were removed from the mold by washing and gentle pipetting. Cell clusters were placed in media containing 0.5% FBS. The clusters were dispensed into 96-well plates at a density of approximately 10-15 clusters per well. […]
as §2

[3] = test system: human ovarian cancer cell line (A1847); assay: as above; conditions: paclitaxel alone at 3.16 μM

| SMILES | effect of the agent alone on lung cancer spheroids ([1]; agent alone) | effect of the agent alone on ovarian cancer clusters [2] | doses giving a statistically significant decrease in live cells [2] [µM] | dose that had to be reached before the agent alone had an effect [2] [µM] | also measured |
| --- | --- | --- | --- | --- | --- |
| O=C(O)CCCc1ccc(N(CCCl)CCCl)cc1 [chlorambucil] | no effect | no effect on its own | – | – | – |
| N.N.[Cl][Pt][Cl] [cisplatin] | – | – | ≥ 31.6 | ≥ 10 | – |
| COc1cccc2c1C(=O)c1c(O)c3c(c(O)c1C2=O)C[C@@](O)(C(=O)CO)C[C@@H]3O[C@H]1C[C@H](N)[C@H](O)[C@H](C)O1 [doxorubicin] | – | – | ≥ 0.5 | – | relative fluorescence (live cells) with increasing dose ([1]; agent alone, 24 h exposure): fluorescence declined; percent of the cancer cells caused to die ([1]; doxorubicin alone, 1.58 μM, 24 h): 36%; reduction in the number of cells from the baseline ([1]; doxorubicin alone, 0.002 to 0.158 μM): no statistically significant reduction; also recorded: had no effect |
| O=c1[nH]cc(F)c(=O)[nH]1 [fluorouracil] | – | the dose response was minimal | – | ≥ 3.16 | doses giving a significant decrease in cell numbers ([1]; agent alone): ≥ 1.58 µM; dose that had to be reached before the agent alone had more than little effect ([1]; agent alone, lung cancer spheroids): ≥ 1.58 µM |
| CN(Cc1cnc2nc(N)nc(N)c2n1)c1ccc(C(=O)N[C@@H](CCC(=O)O)C(=O)O)cc1 [methotrexate] | no effect alone | – | – | – | – |
| CC(=O)O[C@H]1C(=O)[C@@]2(C)[C@H]([C@H](OC(=O)c3ccccc3)[C@]3(O)C[C@H](OC(=O)[C@H](O)[C@@H](NC(=O)c4ccccc4)c4ccccc4)C(C)=C1C3(C)C)[C@]1(OC(C)=O)CO[C@@H]1C[C@@H]2O [paclitaxel] | – | – | 0.01 | ≥ 31.6 | dose at which the number of live cells is reduced (other doses not significant) ([1]; paclitaxel alone): 5 µM; effect on cancer cell death [3]: no effect on cancer cell death |
